Test results reported in patent publication US7972772B2, “KIF11 and method for diagnosing non-small cell lung cancer” (Oncotherapy Science, Inc., priority 2004, dated 2011).
No end group written: not given here.

How the values were obtained:
A549 cells [1] = test: Monastrol treatment of A549 cells, microscopy and time-lapse video-microscopy; type: cell-based, human; conditions: most non-mitotic cells
[2] = target: T1, endogenous GHSR1b and NTSR1 on PC-14 cells (Homo sapiens, UniProt P30989+Q92847); test: Receptor-ligand binding assay on PC-14 cells
T1 construct: endogenous in cells; host or cells: PC-14
Protocol: (§1) To further confirm binding of NMU-25 to the endogenous candidate receptors on the NSCLC cells, we performed receptor-ligand binding assay using the LC319 and PC-14 cells. Briefly, these cells trypsinized were seeded onto 96-well black-wall, clear-bottom microtiter plates 24 hours prior to the assay. The medium was removed and the cells were incubated with Cy5-NMU-25 with a 10-fold excess of unlabeled competitor. The plate was incubated in the dark for 24 hours at 37° C. and was scanned on the 8200 Cellular Detection System (Applied Biosystems). 8200 Analysis Software creates a digitized gray scale image, quantitates the amount of fluorescence bound on the surface of each cell, and enumerates the fluorescent cells.

[3] = target: T2, endogenous GHSR1b and NTSR1 on LC319 cells (Homo sapiens, UniProt P30989+Q92847); test: Receptor-ligand binding assay on LC319 cells
T2 construct: endogenous in cells; host or cells: LC319
Protocol: as §1

COS-7 cells = test: Growth of COS-7 cells with NMU in the medium; type: cell-based; conditions: addition into the medium, dose-dependent
A549 cells [4] = test: Nocodazole treatment of A549 cells, immunocytochemistry; type: cell-based, human; conditions: 10 μM, four hours
From the text: We also investigated the endogenous location of KOC1 and KIF11 particles on the ultrafine structure of microtubules bridging individual A549 cells by an immunocytochemical study, using affinity-purified anti-KOC1- or anti-KIF11 for primary antibody and Alexa594-labeled anti-rabbit IgG for secondary antibody (Molecular Probe) and anti-alpha-tubulin-FITC monoclonal antibody. […] Moreover, no particle was found on the residual structure between the cells. […] To further clarify the detailed mechanism by which the KOC1-KIF11 complex transports mRNAs in NSCLC cells, we have searched for other component(s) that might be interacting with KIF11. Immunoprecipitation with anti-KIF11 polyclonal antibody using a lysate of LC319 cells identified a 150-kDa protein, which was later determined to be a dynactin 1 (DCTN1; p150, glued homolog, Drosophila) by MALDI-TOF mass-spectrometric analysis. DCTN1 is the largest subunit of DCTN, which binds to the cytoplasmic motor-protein dynein and activates vesicle transport along microtubules (Holzbaur, E. L. & Tokito, M. K. Genomics 31, 398-399 (1996); Tokito, M. K. et al., Mol. Biol. Cell 7, 1167-1180 (1996)), or binds to KIF11 to probably participate in centrosome separation (Blangy, A. et al., J. Biol. Chem. 272, 19418-19424 (1997)). […]

NTSR1 = test: Ligand-receptor binding assay, COS-7 cells transfected with NTSR1; set-up: species or system human
Protocol: (§2) To identify direct binding of NMU-25 to its candidate receptors, GHSR1a, GHSR1b and NTSR1, the following experiments were performed. The entire coding region of each receptor gene was amplified by RT-PCR using primers
(§3) The products were digested with EcoR1 and BainH1 and cloned into appropriate sites of p3XFLAG-CMV10 vector (Sigma-Aldrich Co.). COS-7 cells were transfected with GHSR1b or NTSR1 expression plasmids using FuGENE6, as described above. Transfected COS-7 cells were cultured with 0.5 μM rhodamine-labeled NMU-25 peptide (NMU-25-rhodamine: Phoenix Pharmaceuticals. Inc.) for 12 hours, washed five times in PBS(−), and fixed in 4% paraformaldehyde solution for 60 min at room temperature. Then the cells were incubated with antibodies to FLAG-tagged GHSR1a, GHSR1b, or NTSR1 proteins (Sigma-Aldrich Co.), stained with a goat anti-mouse secondary antibody conjugated to FITC (Cappel) and viewed under laser-confocal microscopy (TCS SP2 AOBS: Leica Microsystems). […]
(§4) To confirm the binding of NMU-25 to the candidate receptors, flow-cytometric analysis was performed using the same series of COS-7 cells. […] The population of cells binding to rhodamine-labeled NMU-25 was determined by flow cytometry.

GHSR1b = test: Ligand-receptor binding assay, COS-7 cells transfected with GHSR1b; set-up: species or system human
Protocol: as §2, §3, §4

GHSR1b/NTSR1 = target: T3, GHSR1b/NTSR1 (Homo sapiens, UniProt P30989+Q92847); test: Intracellular Ca2+ mobilization assay in LC319 cells; type: cell-based
T3 construct: endogenous in cells; host or cells: LC319
Protocol: Trypsinized LC319 cells were seeded onto poly-D-lysine coated 384-well black-wall, clear-bottom microtiter plate (1.0×10^4 cells/ml) 24 hours prior to assay. Cells were loaded for 1 hour with […] Fluo-4-AM fluorescent indicator dye in assay buffer (Hank's balanced salts solution, 20 mM HEPES, 2.5 mM probenecid), washed three times with assay buffer, and then returned to the incubator for 10 min before assay on a fluorometric imaging plate reader (FLIPR, Molecular Devices). Maximum change in fluorescence over base line was used to determine the response of the cells to the NMU-25 peptides stimulation.

FOXM1 = test: Induction of FOXM1 in LC319 cells, semiquantitative RT-PCR; type: cell-based, human; conditions: LC319, 100 μM, versus BSA control
Protocol: Expression of the candidate genes was additionally detected by semiquantitative RT-PCR using mRNAs isolated at 72 and 96 hours from LC319 cells treated with 1 μM NMU-25 or BSA at the time point of 0 and 48 hours.
Therefore, we chose FOXM1 for further analysis. To determine specific induction of the FOXM1 by the NMU ligand-receptor signaling, LC319 cells expressing GHSR1b and NTSR1 were cultured in the presence of NMU-25 or BSA (control) at final concentrations of 100 μM in the culture media.

[5] = COS-7, NMU-25-rhodamine 0.5 μM, 12 hours

T3 sequence (Q92847 1-289 isoform Q92847-2): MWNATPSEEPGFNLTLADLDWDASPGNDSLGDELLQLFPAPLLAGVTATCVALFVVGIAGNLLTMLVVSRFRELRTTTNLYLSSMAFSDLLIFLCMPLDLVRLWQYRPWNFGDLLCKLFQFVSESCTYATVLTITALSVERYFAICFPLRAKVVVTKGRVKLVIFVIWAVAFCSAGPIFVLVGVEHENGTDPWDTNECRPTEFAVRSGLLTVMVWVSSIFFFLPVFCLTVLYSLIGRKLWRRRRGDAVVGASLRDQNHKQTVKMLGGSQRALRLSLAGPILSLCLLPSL
T3 sequence (P30989 whole entry): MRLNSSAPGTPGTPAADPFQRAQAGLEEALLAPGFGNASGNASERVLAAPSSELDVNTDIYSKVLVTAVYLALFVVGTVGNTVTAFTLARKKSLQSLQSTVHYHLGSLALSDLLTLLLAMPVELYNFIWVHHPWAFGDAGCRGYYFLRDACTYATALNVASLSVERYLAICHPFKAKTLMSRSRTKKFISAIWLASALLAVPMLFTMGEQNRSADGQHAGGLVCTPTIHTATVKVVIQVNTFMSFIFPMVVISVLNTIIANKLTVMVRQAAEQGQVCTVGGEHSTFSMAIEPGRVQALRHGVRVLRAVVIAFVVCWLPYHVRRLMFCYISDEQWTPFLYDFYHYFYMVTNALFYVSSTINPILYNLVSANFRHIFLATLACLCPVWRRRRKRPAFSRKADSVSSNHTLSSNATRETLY

CCOC(=O)C1=C(C)NC(=S)NC1c1cccc(O)c1 (centres unmarked) [monastrol]
time to loss of protrusion and connection to adjacent cells, non-mitotic cells (A549 cells [1]): ≤ 2 h

Cy5-labeled NMU-25: Cy5-labeled NMU-25 peptide (FRVDEEFQSPFASQSRGYFLFRPRN; ends and bridges not checked; also: Cy5-labeled, site not given here)
binding to the cell surface [2]: detected binding
binding to the cell surface [3]: detected binding

NMU: neuropeptide neuromedin U added into the medium (FRVDEEFQSPFASQSRGYFLFRPRN)
growth of COS-7 cells (COS-7 cells): promoted the growth

COC(=O)Nc1nc2ccc(C(=O)c3cccs3)cc2[nH]1 [nocodazole]
effect on endogenous KOC1, KIF11 and microtubules (A549 cells [4]): collapse and aggregation of endogenous KOC1 and KIF11, along with the depolymerization of microtubules in the cytoplasm

rhodamine-labeled NMU-25: rhodamine-labeled NMU-25 peptide (Phoenix Pharmaceuticals) (FRVDEEFQSPFASQSRGYFLFRPRN; ends and bridges not checked; also: rhodamine-labeled, site not given here)
binding to surface of COS-7 cells expressing NTSR1 (flow cytometry) (NTSR1; dose dependent): binding
binding to surface of COS-7 cells expressing GHSR1b (flow cytometry) (GHSR1b; dose dependent): binding

NMU-25: NMU-25 peptide, ligand neuromedin U (FRVDEEFQSPFASQSRGYFLFRPRN)
intracellular Ca2+ flux / mobilization (GHSR1b/NTSR1): but not Ca^2+ flux
expression of FOXM1 (FOXM1): higher expression of FOXM1
co-localization with FLAG-tagged NTSR1 (confocal microscopy) (NTSR1; [5]): located together on the cell membrane
co-localization with FLAG-tagged GHSR1b (confocal microscopy) (GHSR1b; [5]): located together on the cell membrane
